Experimental findings from patent US12030879B2, “Sulfonyl acetamides as NLRP3 inhibitors” (Inflazome Limited, priority 2018, dated 2024) are described below.

pIC50: −log10 of the molar value.

Broadly, the AUC is concentration integrated over time. By clearance is commonly meant a measure of how efficiently the substance is removed, as volume per time. The low end stands for inefficient removal, the high end for efficient removal. What is called half-life is the time in which the quantity being followed falls by half. A low value points to rapid decline. What is called pIC50 is the negative decadic logarithm of the IC50, by convention in mol/L.

T1 sequence (Q96P20 whole entry): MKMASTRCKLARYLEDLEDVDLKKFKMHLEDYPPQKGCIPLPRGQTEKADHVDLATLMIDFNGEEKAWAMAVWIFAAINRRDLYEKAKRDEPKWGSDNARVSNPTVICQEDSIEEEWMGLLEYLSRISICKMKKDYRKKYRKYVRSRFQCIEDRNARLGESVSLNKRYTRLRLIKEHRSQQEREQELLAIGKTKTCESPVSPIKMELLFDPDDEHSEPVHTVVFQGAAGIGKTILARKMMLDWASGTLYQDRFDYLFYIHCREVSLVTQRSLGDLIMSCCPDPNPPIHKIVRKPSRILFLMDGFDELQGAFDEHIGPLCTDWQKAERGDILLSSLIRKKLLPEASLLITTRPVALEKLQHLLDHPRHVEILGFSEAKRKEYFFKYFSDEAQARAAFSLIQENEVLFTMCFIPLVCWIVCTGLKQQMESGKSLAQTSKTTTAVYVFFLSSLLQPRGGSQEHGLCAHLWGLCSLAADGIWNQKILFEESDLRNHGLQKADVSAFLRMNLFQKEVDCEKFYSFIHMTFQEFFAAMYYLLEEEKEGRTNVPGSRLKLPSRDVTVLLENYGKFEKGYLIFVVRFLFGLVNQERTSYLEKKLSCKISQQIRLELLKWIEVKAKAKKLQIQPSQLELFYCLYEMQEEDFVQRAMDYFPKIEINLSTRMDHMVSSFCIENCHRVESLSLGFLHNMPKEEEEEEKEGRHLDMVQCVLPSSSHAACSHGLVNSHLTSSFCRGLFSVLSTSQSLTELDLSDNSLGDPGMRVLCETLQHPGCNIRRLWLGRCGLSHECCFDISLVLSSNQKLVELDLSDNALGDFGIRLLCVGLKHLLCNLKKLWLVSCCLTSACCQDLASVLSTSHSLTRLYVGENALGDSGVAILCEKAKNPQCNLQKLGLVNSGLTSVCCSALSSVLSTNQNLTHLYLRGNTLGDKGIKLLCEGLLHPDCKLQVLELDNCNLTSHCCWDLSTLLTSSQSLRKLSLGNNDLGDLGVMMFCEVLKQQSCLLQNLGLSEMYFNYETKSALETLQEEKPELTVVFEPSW

Tested on in the first data set: not listed separately
Nature of the data set: PK protocol, intravenous administration in rats. The note with it: rat, plasma, male Sprague Dawley rats, 1 mg/kg. Format: in vivo. The method, then:
Pharmacokinetic parameters were determined in male Sprague Dawley rats (Vital River Laboratory Animal Technology Co Ltd, Beijing, China, 7-9 weeks old). Animals were group housed during the study and maintained under a 12 h light/dark cycle.
For intravenous administration, compounds were formulated as a solution in DMSO:PBS [10:90] in 2 mL/kg dosing volume and administered via tail vein.
Serial blood samples (about 200 μL) were taken from each animal at each of 8 time-points post dose (0.083, 0.25, 0.5, 1, 2, 4, 8 and 24 h). Samples were held on ice for no longer than 30 minutes before centrifugation (5,696 rpm (3,000 g) for 15 minutes) for plasma generation. Plasma was frozen on dry ice prior to bioanalysis. PK parameters were generated from LC-MS/MS data using Phoenix WinNonlin 6.3 software.
Compound `COc1cc(-c2ccc3c(c2CC(=O)NS(=O)(=O)c2ccc(C(C)(C)O)cc2C)CCC3)ccn1` [Example 85, N-((4-(2-Hydroxypropan-2-yl)-2-methylphenyl)sulfonyl)-2-(5-(2-methoxypyridin-4-yl)-2,3-dihydro-1H-inden-4-yl)acetamide] showed an AUC of 926 ng·h/mL, a clearance of 29.1 mL/min/kg and a half-life of 19.8 h. The like results for `COc1cc(-c2cc(F)cc(C(C)C)c2CC(=O)NS(=O)(=O)c2ccc(C(C)C)cc2)ccn1` [Example 110, 2-(4-Fluoro-2-isopropyl-6-(2-methoxypyridin-4-yl)phenyl)-N-((4-isopropylphenyl)sulfonyl)acetamide] were, in that order, 1260 ng·h/mL, 13.3 mL/min/kg and 7.2 h.

The data set is the same for the next values; noted with them: rat, plasma, male Sprague Dawley rats, 1 mg/kg, read-out: Vdss.
For `COc1cc(-c2ccc3c(c2CC(=O)NS(=O)(=O)c2ccc(C(C)(C)O)cc2C)CCC3)ccn1` [Example 85, N-((4-(2-Hydroxypropan-2-yl)-2-methylphenyl)sulfonyl)-2-(5-(2-methoxypyridin-4-yl)-2,3-dihydro-1H-inden-4-yl)acetamide], the Vd stood at 12.2 L/kg. Take `COc1cc(-c2cc(F)cc(C(C)C)c2CC(=O)NS(=O)(=O)c2ccc(C(C)C)cc2)ccn1` [Example 110, 2-(4-Fluoro-2-isopropyl-6-(2-methoxypyridin-4-yl)phenyl)-N-((4-isopropylphenyl)sulfonyl)acetamide]: the Vd was 6.72 L/kg.

A further data set has as its target T1, NLRP3 (Homo sapiens, UniProt Q96P20).
T1 construct: Seed THP-1 cells (25,000 cells/well) containing 1.0 μg/ml LPS in 40 μl of RPMI medium; host or cells: THP-1 cells
As to the kind of experiment: THP-1 cells pyroptosis assay. The class given is cell-based. The settings on record: LPS 1 μg/ml, compound 3 hrs, nigericin 5 μM 1 hr, resazurin readout. The gist of the method: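 LPS-primed (1 μg/ml) THP-1 cells in serum-free RPMI were treated 3 h with compound (8-point half-log, top 10 μM; 0.1% DMSO), then with 5 μM nigericin for 1 h at 37°C. Viability was read by 100 μM resazurin (ex 560/em 590 nm) after 1–2 h. IC50 came from 4-parameter nonlinear regression.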
Background: Resazurin is reduced to fluorescent resorufin, in cell work by metabolically active cells.
Regarding `COc1cc(-c2ccc3c(c2CC(=O)NS(=O)(=O)c2ccc(C(C)(C)O)cc2C)CCC3)ccn1` [Example 85, N-((4-(2-Hydroxypropan-2-yl)-2-methylphenyl)sulfonyl)-2-(5-(2-methoxypyridin-4-yl)-2,3-dihydro-1H-inden-4-yl)acetamide], the pIC50 is at least 6.30. Still for that read-out and setting: under `COc1cc(-c2cc(F)cc(C(C)C)c2CC(=O)NS(=O)(=O)c2ccc(C(C)C)cc2)ccn1` [Example 110, 2-(4-Fluoro-2-isopropyl-6-(2-methoxypyridin-4-yl)phenyl)-N-((4-isopropylphenyl)sulfonyl)acetamide] stands at least 6.00; under `COc1cc(-c2cc(F)cc(C(C)C)c2CC(=O)NS(=O)(=O)c2ccc(-c3cnco3)cc2)ccn1` [Example 184], at least 6.00; under `COc1cc(-c2cc(F)cc(C(C)C)c2CC(=O)NS(=O)(=O)c2ccc(C(C)C)cn2)ccn1` [Example 185], at least 6.30. On the same count and under the same terms, under `Cc1cc(C(C)(C)O)ccc1S(=O)(=O)NC(=O)Cc1c(-c2ccncc2)cc(F)cc1C(C)C` [Example 186] stands at least 6.30. Same read-out and setting: under `COc1cc(-c2cc(F)cc(C(C)C)c2CC(=O)NS(=O)(=O)c2ccc(CC#N)cc2)ccn1` [Example 187] stands at least 5.30; under `COc1cc(-c2cc(F)cc(C(C)C)c2CC(=O)NS(=O)(=O)c2nc(C)cc(C)n2)ccn1` [Example 188], at least 5.00; under `Cc1cc(C(C)(C)O)ccc1S(=O)(=O)NC(=O)Cc1c(-c2ccnc(C#N)c2)ccc2c1CCC2` [Example 189], at least 6.30.

For the compound `COc1cc(-c2cc(F)cc(C(C)C)c2CC(=O)NS(=O)(=O)c2ccc(C(C)(C)C#N)cc2)ccn1` [Example 190], the pIC50 is at least 5.30.

Compound `COc1cc(-c2cc(F)cc(C(C)C)c2CC(=O)NS(=O)(=O)c2cncc(N(C)C)n2)ccn1` [Example 191] had a pIC50 of at least 6.00. On the same count and under the same terms, under `COc1cc(-c2cc(F)cc(C(C)C)c2CC(=O)NS(=O)(=O)c2ccn(C(C)(C)CN(C)C)n2)ccn1` [Example 192] stands at least 5.30. The same measure, in the same setting: the figure for `COc1cc(-c2cc(F)cc(C(C)C)c2CC(=O)NS(=O)(=O)c2cnn(CC(C)(C)O)c2)ccn1` [Example 193] is at least 5.30; for `COCC(C)(C)n1ccc(S(=O)(=O)NC(=O)Cc2c(-c3ccnc(OC)c3)cc(F)cc2C(C)C)n1` [Example 194] it is at least 5.30; for `COc1cc(-c2cc(F)cc(C(C)C)c2CC(=O)NS(=O)(=O)c2ccn(C(C)(C)CO)n2)ccn1` [Example 195] it is at least 5.30. Still for that read-out and setting: under `COc1cc(-c2cc(F)cc(C(C)C)c2CC(=O)NS(=O)(=O)c2cc(C(C)(C)O)n(C(C)C)n2)ccn1` [Example 196] stands at least 5.00; under `COc1cc(-c2cc(F)cc(C(C)C)c2CC(=O)NS(=O)(=O)c2cc(C(C)(C)O)n(C)n2)ccn1` [Example 197], at least 5.30. Take `COc1cc(-c2cc(F)cc(C(C)C)c2CC(=O)NS(=O)(=O)c2cncc(C(C)(C)O)c2)ccn1` [Example 198]: the pIC50 is at least 6.30. Still for that read-out and setting: under `CCC(O)(CC)c1cc(S(=O)(=O)NC(=O)Cc2c(-c3ccnc(OC)c3)cc(F)cc2C(C)C)sc1C` [Example 199] stands at least 6.30; under `CC(C)c1cc(S(=O)(=O)NC(=O)Cc2c(-c3cccnc3)cc(F)cc2C(C)C)c(F)cc1F` [Example 200], at least 6.30; under `CC(C)c1cc(S(=O)(=O)NC(=O)Cc2c(-c3ccncc3)cc(F)cc2C(C)C)c(F)cc1F` [Example 201], at least 6.30. `Cc1nc(C(C)C)c(CC(=O)NS(=O)(=O)c2cc(C(C)C)c(F)cc2F)n1-c1ccncc1` [Example 202]: the pIC50 is at least 5.30. `COc1ccncc1-c1cc(F)cc(C(C)C)c1CC(=O)NS(=O)(=O)c1cc(C(C)C)c(F)cc1F` [Example 203] showed a pIC50 of at least 6.30. The same measure, in the same setting: under `COc1cc(-c2ccc3c(c2CC(=O)NS(=O)(=O)c2cc(C(C)C)c(F)cc2F)CCC3)ccn1` [Example 204] stands at least 5.30; under `COc1cc(-c2cc(F)cc(C(C)C)c2CC(=O)NS(=O)(=O)c2cc(C(C)C)cs2)ccn1` [Example 205], at least 6.30; under `COc1cc(-c2cc(F)cc(C(C)C)c2CC(=O)NS(=O)(=O)c2cc(C(C)C)ccc2C)ccn1` [Example 206], at least 6.30. `CCCn1cc(S(=O)(=O)NC(=O)Cc2c(-c3ccnc(OC)c3)cc(F)cc2C(C)C)c(C)n1` [Example 207] gave a pIC50 of at least 6.00. With `COc1cc(-c2cc(F)cc(C(C)C)c2CC(=O)NS(=O)(=O)c2cn(CC(C)C)nc2C)ccn1` [Example 208], the pIC50 was at least 5.30.

In turn, `C=C(C)c1ccc(C)c(S(=O)(=O)NC(=O)Cc2c(-c3ccnc(OC)c3)cc(F)cc2C(C)C)c1` [Example 209] gave a pIC50 of at least 6.30.
